Results from patent publication US9730949B2, “Angiotensin converting enzyme inhibitors for treating optic neuropathy or congenital optic atrophy” (priority 2012, dated 2017).

Experiments:
Assay type in all cases: in vivo, human
[1] = tested on: optic neuropathy or congenital optic atrophy; experiment: Other ACE inhibitors in patients with the same optic neuropathy or congenital optic atrophy as in Examples 1 to 5; conditions: patients as in Examples 1 to 5, similar procedures; present tense, no data
Protocol: Fosinoprilate, trandolaprilate, moexiprilate, quinaprilate, enalaprilate, perindoprilate and benazeprilate, as well as captopril and lisinopril are also tested in patients having the same optic neuropathy or congenital optic atrophy as in Examples 1 to 5 using similar procedures.

Leber's optic neuropathy = experiment: Visual acuity after treatment in patients with Leber's optic neuropathy; conditions: intravitreal 2% (w/v), 0.1 to 0.2 ml, once every 15 days, three injections
Protocol: Patient two has Leber's optic neuropathy with a visual acuity of 1/20 in the right eye and zero in the left eye prior to treatment.
An intraocular injection (intravitreal) of 2% (w/v) ramiprilate in a quantify of 0.1 to 0.2 ml, which was injected once every 15 days for a total of three injections. The visual acuity was measured after this treatment. The results of 2/10 in the right eye and 1/20 in the left eye were achieved,
Patient one has Leber's optic neuropathy and had only bright perceptions in two eyes. Visual acuity was measured prior to treatment.
An intraocular injection (intravitreal) of 2% (w/v) ramiprilate in a quantity of 0.1 to 0.2 ml, which was infected once every 15 days for a total of three injections. The visual acuity was measured after this treatment. The visual acuity was 2/10 for both eyes.

[2] = tested on: bilateral asymmetric anterior optic neuropathy ischemia; experiment: Visual acuity after treatment in a patient with anterior optic neuropathy ischemia; conditions: patient three; intravitreal 2% (w/v), 0.1 to 0.2 ml, once every 15 days, three injections; 1/10 in both eyes prior to treatment
Protocol: FIGS. 3 and 4 show a fluoangiography of MM before treatment.
MM was administered an intravitreal injection of 2% (w/v) ramiprilate in a quantify of 0.1 to 0.2 ml, which was injected once every 15 days for a total of three injections. The visual acuity was then taken and was 5/10 for both eyes.

[3] = tested on: dominant recessive congenital optic atrophy; experiment: Visual acuity after treatment in patients with dominant recessive congenital optic atrophy; conditions: 2 patients; eye drops 2% (w/v), 2 times per day for 3 months
Protocol: 2 patients that have dominant recessive congenital optic atrophy had bad visual acuity.
These 2 patients were treated with eye drops containing 2% (w/v) ramiprilate 2 times per day for a duration of 3 months.

[4] = tested on: central artery occlusion of the retina; experiment: Visual acuity after treatment in patients with central artery occlusion of the retina
Protocol: FIG. 5 is a fundus photograph of patient four before treatment.
(§1) One was administered 2% (w/v) ramprilate in an eye drop formulation twice a day for 3 months, while the other was administered 2% (w/v) ramprilate in via an intravitreal injection ramiprilate in a quantity of 0.1 to 0.2 ml, which was injected once every 15 days for a total of three injections.

[5] = tested on: toxication by ingestion of methyl alcohol; experiment: Visual acuity after treatment in patients with toxication by ingestion of methyl alcohol
Protocol: 2 patients (SR and WW) suffering from toxication by ingestion of methyl alcohol has bad visual acuity. FIG. 6 is a fluoangiography of SR prior to treatment. FIG. 7 is an optical coherence tomography scan of SR before treatment.
as §1, with “One patient” for “One”, “other patient” for “other”

Structure (SMILES) | visual acuity [1] | also measured
O=C(O)[C@@H]1C[C@@H](C2CCCCC2)CN1C(=O)CP(=O)(O)CCCCc1ccccc1 [Fosinoprilate, fosinoprilate] | improvement in visual acuity | 
O=C(O)CN1C(=O)[C@@H](N[C@@H](CCc2ccccc2)C(=O)O)CCc2ccccc21 [benazeprilate] | improvement in visual acuity | 
C[C@H](CS)C(=O)N1CCC[C@H]1C(=O)O [captopril] | improvement in visual acuity | 
C[C@H](N[C@@H](CCc1ccccc1)C(=O)O)C(=O)N1CCC[C@H]1C(=O)O [enalaprilate] | improvement in visual acuity | 
NCCCC[C@H](N[C@@H](CCc1ccccc1)C(=O)O)C(=O)N1CCC[C@H]1C(=O)O [lisinopril] | improvement in visual acuity | 
COc1cc2c(cc1OC)CN(C(=O)[C@H](C)N[C@@H](CCc1ccccc1)C(=O)O)[C@H](C(=O)O)C2 [moexiprilate] | improvement in visual acuity | 
CCC[C@H](N[C@@H](C)C(=O)N1[C@H](C(=O)O)C[C@@H]2CCCC[C@@H]21)C(=O)O [perindoprilate] | improvement in visual acuity | 
C[C@H](N[C@@H](CCc1ccccc1)C(=O)O)C(=O)N1Cc2ccccc2C[C@H]1C(=O)O [quinaprilate] | improvement in visual acuity | 
CC(NC(CCc1ccccc1)C(=O)O)C(=O)N1C(C(=O)O)CC2CCCC21 (stereo not drawn) [ramiprilate] |  | visual acuity, both eyes, after treatment (Leber's optic neuropathy; patient one, only bright perceptions in two eyes before): 2/10; visual acuity, right eye, after treatment (Leber's optic neuropathy; patient two, 1/20 prior to treatment): 2/10; visual acuity, left eye, after treatment (Leber's optic neuropathy; patient two, zero prior to treatment): 1/20; visual acuity, both eyes, after treatment [2]: 5/10; vision as indicated by visual acuity [3]: greatly improved; vision as indicated by visual acuity ([4]; one patient (alpha), eye drop formulation 2% (w/v) twice a day for 3 months): improvement in vision; vision as indicated by visual acuity ([4]; other patient (alpha), intravitreal 2% (w/v), 0.1 to 0.2 ml, once every 15 days, three injections): improvement in vision; vision as indicated by visual acuity ([5]; one patient (beta), eye drop formulation 2% (w/v) twice a day for 3 months): improvement in vision; vision as indicated by visual acuity ([5]; other patient (beta), intravitreal 2% (w/v), 0.1 to 0.2 ml, once every 15 days, three injections): improvement in vision
C[C@H](N[C@@H](CCc1ccccc1)C(=O)O)C(=O)N1[C@H](C(=O)O)C[C@H]2CCCC[C@@H]21 [trandolaprilate] | improvement in visual acuity | 
